Reference: patent US6706839B1, “Chemical partitioning agents and methods of using same” (University of Pittsburgh, priority 1999, dated 2004)

Assay: Solubility of stilbene precipiton isomers in organic solvents (qualitative observations)
Assay type: physicochemical
Conditions: for solubility in THF: reaction solvent of the Z to E isomerization
Protocol: When a solution of (Z)-stilbene (51Z or 52Z) in THF was heated to reflux at 80-90° C. in the presence of Ph2S2 (0.2 equiv) for several hours, the Z to E isomerization occurred smoothly. The reaction was followed by ^1H NMR (either vinylic protons or NMe2 (51Z), OMe (52Z)). As the reaction proceeded, solid precipitate came out of the solution. […] The E-isomer was obtained pure in a 44% (51E) and 79% (52E) yield, respectively without any contamination of either Z-isomer or Ph2S2. […] In high-boiling solvents such as toluene and p-dioxane, the isomerization was faster than in THF and the reaction was completed in less than 3 h (Table 32). A second catalytic method for isomerization/precipitation employs iodine and a radical initiator, for example dibenzoylperoxide. Irradiation of the cis-alkenes in the presence of 1-50 mol % iodine and 0.1-25 mol % dibenzoylperoxide affords clean isomerization of the cis to trans alkene.
(2-Naphthalenylmethyl)triphenylphosphonium bromide ((a) Tinnemans, A. H. A.; Laarhoven, W. H. J. Chem. Soc. Perkin. Trans. 2, 1976, 1104-1111. (b) Zelikovich, L.; Hoffman, R. E.; Ayalon, A.; Rabinovitz, M. J. Chem. Soc. Perkin. Trans. 2, 1992, 1785-1792) was treated with NaH in DMF to generate a corresponding ylide. A solution of 4-methoxy-1-naphthaldehyde in DMF was added and stirred at 35-50° C. for 2 h at to give 1,2-naphthylstilbene 53 in 51% yield (53Z:53E=1:1.2). 6-Methoxy-2-naphthaldehyde ((a) Harvey, R. G.; Cortez, C.; Sawyer, T. W.; DiGiovanni, J.; J. Med. Chem. 1988, 31, 1308-1312. (b) Harvey, R. G.; Cortez, C. Tetrahedron, 1997, 53, 7101-7118) was prepared by formylation (Beringer, F. M.; Nathan, R. A. J. Org. Chem. 1969, 34, 685-689) of 6-methoxy-2-bromonaphthalene in 53% yield. When (2-naphthalenylmethyl)-triphenylphosphonium bromide was reacted with 6-methoxy-2-naphthaldehyde in a similar manner as 1,2-naphthylstilbene, (Z)-2,2-naphthylstilbene 54Z was prepared in 39% isolated yield. […]

solubility in Et2O, compared with 52E (Et2O, trituration solvent, relative to 52E) | solubility in THF | Compound
bigger solubility | partially soluble | CN(C)c1ccc(/C=C/c2ccc(Br)cc2)cc1 [51E]
– | partially soluble | COc1ccc(/C=C/c2ccc(-c3ccccc3)cc2)cc1 [52E]
